According to patent publication US20250270201A1, “SUBSTITUTED PYRIMIDINYL HYDRAZIDE COMPOUND AND PREPARATION METHOD AND USE THEREOF” (ARIGENX THERAPEUTICS CO., LTD., priority 2022, published 2025):

Biological target: T1, AHR (Homo sapiens, UniProt P35869)
T1 construct: A human liver cancer cell line HepG2 endogenously expressing an AHR protein; host or cells: HepG2 stably transfected with a CYP1A1-promoter firefly luciferase reporter
T1 sequence (P35869 11-848): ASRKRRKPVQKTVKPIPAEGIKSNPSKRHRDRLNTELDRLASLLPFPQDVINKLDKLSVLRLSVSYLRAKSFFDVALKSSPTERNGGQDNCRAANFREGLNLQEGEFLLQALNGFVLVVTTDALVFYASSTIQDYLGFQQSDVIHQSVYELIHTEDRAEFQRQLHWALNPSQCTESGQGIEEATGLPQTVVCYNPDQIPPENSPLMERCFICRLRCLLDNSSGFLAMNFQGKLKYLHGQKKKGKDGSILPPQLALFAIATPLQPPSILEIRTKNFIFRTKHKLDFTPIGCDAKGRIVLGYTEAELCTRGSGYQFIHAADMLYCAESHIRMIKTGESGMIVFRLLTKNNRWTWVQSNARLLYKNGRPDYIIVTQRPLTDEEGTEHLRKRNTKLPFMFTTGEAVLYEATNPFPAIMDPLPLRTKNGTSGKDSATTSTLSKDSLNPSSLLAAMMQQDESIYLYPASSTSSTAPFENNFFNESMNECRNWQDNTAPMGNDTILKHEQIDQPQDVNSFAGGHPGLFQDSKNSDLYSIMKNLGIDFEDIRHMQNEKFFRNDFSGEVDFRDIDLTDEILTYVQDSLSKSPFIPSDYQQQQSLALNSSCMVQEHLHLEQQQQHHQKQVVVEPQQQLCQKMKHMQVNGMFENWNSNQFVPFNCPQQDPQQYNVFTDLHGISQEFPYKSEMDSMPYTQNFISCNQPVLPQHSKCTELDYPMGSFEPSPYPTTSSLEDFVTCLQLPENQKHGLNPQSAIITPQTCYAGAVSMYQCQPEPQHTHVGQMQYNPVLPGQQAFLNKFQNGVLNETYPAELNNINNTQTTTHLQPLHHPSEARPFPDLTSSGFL
Experiment: Antagonistic effect for AHR in HepG2 cells stably transfected with CYP1A1-promoter firefly luciferase reporter
Type: cell-based
Conditions: AHR agonist-stimulated, 24 h compound treatment, average of two replicates
From the text: A human liver cancer cell line HepG2 endogenously expressing an AHR protein (provided by the Stem Cell Bank of the Chinese Academy of Sciences) was adopted for testing. The expression of a CYP1A1 gene is regulated by an activity of AHR. After being activated, AHR can bind to a sequence called XRE on a CYP1A1 enhancer and initiate the expression of the CYP1A1 gene. To quantitatively determine an impact of a compound on the activity of AHR, a 1,200 bp (−1,143 to +57) regulatory sequence upstream of a promoter of the CYP1A1 gene was synthesized through gene synthesis and then inserted into a plasmid vector carrying firefly luciferase. The plasmid was then linearized through single enzyme cleavage and then transfected into HepG2 cells through lipofectin transfection (Lipofectamine 3000), and transfected HepG2 cells were screened by puromycin to obtain a stably-expressed cell line. When an antagonistic effect of a compound for AHR was tested, the expression of firefly luciferase was initiated by an AHR agonist (such as L-kynurenine, kynurenic acid, indirubin, TCDD, and 2-(1H-indol-3-ylcarbonyl)-4-thiazolecarboxylic acid methyl ester (ITE)), and cells were treated with the compound at different concentrations. Then, the inhibition on the expression of luciferase by the compound was measured.
Stably-transfected HepG2 cells were sub-cultivated in Minimum Eagle's medium (MEM) at 37° C. and 5% carbon dioxide. In the MEM, 1 mM sodium pyruvate, 2 mM GlutaMax, 1×non- essential amino acids, 10% Australian fetal bovine serum, 100 U/mL penicillin-streptomycin, and 5 μg/mL puromycin were supplemented. Before testing, HepG2 cells were inoculated into a 96-well plate at a density of 5-8×10^4 cells/well and cultivated for 24 h to 48 h to allow a cell confluency of about 90% before a drug treatment (puromycin was not added in a medium). Before the drug treatment, AHR agonist-containing 2×compound solutions at different concentrations were prepared with a same medium, and then a half of a cell culture medium in the 96-well plate was replaced with a 2×compound solution. An AHR agonist solution including only DMSO at a corresponding concentration was set as a negative control group, and CH223191 at a corresponding concentration (commercially available) was set as a positive control group. 2 separate replicate tests were set for each compound (including a positive control and a negative control). 24 h after the compound treatment, HepG2 cells were lysed by a Steady-Glo luciferase detection system of Promega, and a luciferase signal was measured by an InfiniteM1000 Pro microplate reader of Tecan.
In terms of data processing, for each replicate test of each compound, inhibition percentages of a compound at different concentrations on an activity of AHR were calculated sequentially with a signal of a well at a compound concentration of 0 as 100% and a cell signal of an untreated agonist as 0. Corresponding IC50 of a compound was calculated with an average value of data of two replicates according to the formula
tirougn non-nnear ning, where y represents an inhibition percentage and x represents a concentration of a corresponding compound.
IC50 for each compound was shown in Table 2, where A indicates IC50≤500 nM, B indicates 500 nM<IC50≤1.0 μM, C indicates 1 μM<IC50≤5.0 μM, and D indicates IC50>5.0 μM.

SMILES | IC50
CC(C)N(NC(=O)c1cc(-c2ccc(O)cc2)nc(-c2cccnc2)n1)C(C)CO (centres unmarked) [Compound 51] | 500 to 1000 nM
CCN(NC(=O)c1cc(-c2ccc(C(F)(F)F)cc2)nc(-c2cccc(C)c2)n1)C(C)CO (centres unmarked) [Compound 53] | 500 to 1000 nM
CCN(NC(=O)c1cc(-c2ccc(Cl)cc2)nc(-c2cccc(C)c2)n1)C(C)CO (centres unmarked) [Compound 55] | 500 to 1000 nM
CC(C)N(NC(=O)c1cc(-c2cccc(F)c2)nc(-c2cccnc2)n1)C(C)CO (centres unmarked) [Compound 58] | 500 to 1000 nM
CC(C)N(NC(=O)c1cc(-c2ccc(F)cc2)nc(-c2cccnc2)n1)C(C)CO (centres unmarked) [Compound 59] | 500 to 1000 nM
CC(C)N(NC(=O)c1cc(-c2ccc(C(F)(F)F)nc2)nc(-c2cccnc2)n1)C(C)CO (centres unmarked) [Compound 60] | 500 to 1000 nM
Cc1ccc(-c2cc(C(=O)NN(C(C)C)C(C)CO)nc(-c3cccnc3)n2)s1 (centres unmarked) [Compound 62] | 500 to 1000 nM
CC(C)N(NC(=O)c1cc(-c2ccc(N)cc2)nc(-c2cccnc2)n1)C(C)CO (centres unmarked) [Compound 63] | 500 to 1000 nM
CC(C)N(NC(=O)c1cc(-c2ccc(C(F)(F)F)nc2)nc(-c2cccc(F)c2)n1)C(C)CO (centres unmarked) [Compound 65] | 500 to 1000 nM
CC(C)N(NC(=O)c1cc(-c2ccc(C(F)(F)F)cc2)nc(-c2cccnc2)n1)C(=O)c1cccnc1 [Compound 68] | ≤ 500 nM

Other lines, results leading:

IC50 | SMILES
≤ 500 nM | CCN(NC(=O)c1cc(-c2ccc(C(F)(F)F)cc2)nc(-c2cccc(F)c2)n1)C(C)CO (centres unmarked) [Compound 52]
≤ 500 nM | CCN(NC(=O)c1cc(-c2ccc(Cl)cc2)nc(-c2cccc(F)c2)n1)C(C)CO (centres unmarked) [Compound 54]
≤ 500 nM | CCN(NC(=O)c1cc(-c2ccc(C(F)(F)F)cc2)nc(-c2cccs2)n1)C(C)CO (centres unmarked) [Compound 56]
≤ 500 nM | CCN(NC(=O)c1cc(-c2ccc(C(F)(F)F)cc2)nc(-c2cnsc2)n1)C(C)CO (centres unmarked) [Compound 57]
≤ 500 nM | CC(C)N(NC(=O)c1cc(-c2ccc(C(F)(F)F)cc2)nc(-c2cccc(F)c2)n1)C(C)CO (centres unmarked) [Compound 61]
≤ 500 nM | CC(=O)N(NC(=O)c1cc(-c2ccc(C(F)(F)F)cc2)nc(-c2cccnc2)n1)C(C)C [Compound 66]
≤ 500 nM | CC(C)N(NC(=O)c1cc(-c2ccc(C(F)(F)F)cc2)nc(-c2cccnc2)n1)S(C)(=O)=O [Compound 67]
